Data reported in ChEMBL document CHEMBL1146674, “Effective irreversible alkylating reagents based on the structure of clavulones” (Bioorg Med Chem Lett, 2004).
pIC50: −log10 of the molar value.

What follows are compounds tested on HeLa (assay: Cytotoxicity in HeLa S3 cells (human uterocervical carcinoma) was determined). Details: Homo sapiens, HeLa; read-out: IC50.
Format: functional, cell-based
`O=C1CC(SCCO)C(O)(CC#Cc2ccccc2)/C1=C/c1ccccc1` (stereo unspecified) showed a pIC50 of 7.68.
In the case of `O=C1C=CC(O)(CC#Cc2ccccc2)/C1=C/c1ccccc1` (stereo unspecified), the pIC50 was 7.82.
For `O=C1C=CC(CC#Cc2ccccc2)(OC2CCCCO2)/C1=C/c1ccccc1` (stereo unspecified), the pIC50 was 5.96.
Work on `CC(=O)OC1(CC#Cc2ccccc2)C=CC(=O)C1=Cc1ccccc1` (stereo unspecified) yielded a pIC50 of 7.62.

Same assay, conditions: hela
With `O=C1CC(SCCO)/C(=C/C#Cc2ccccc2)C1C(SCCO)c1ccccc1` (stereo unspecified) the IC50 was > 1000 µM.
With `O=C1CC(SCCO)/C(=C\C#Cc2ccccc2)C1C(SCCO)c1ccccc1` (stereo unspecified) the IC50 was > 1000 µM.
